Test system: human mixed lymphocyte reaction (MLR)
Test: human mixed lymphocyte reaction (MLR) assay of immunosuppressant activity
Type: cell-based
Conditions: Table 1
Method: The immunosuppressant activity of the compounds of the present invention was determined using the human mixed lymphocyte reaction (MLR) assay described by Kino, T. et al. in Transplantation Proceedings XIX(5):36-39, Suppl. 6 (1987), incorporated herein by reference.

Compound	IC50 [nM]
CC[C@@H]1/C=C(\C)C[C@H](C)C[C@H](OC)[C@H]2O[C@@](O)(C(=O)C(=O)N3CCCC[C@H]3C(=O)O[C@H](/C(C)=C/[C@@H]3CCC(N4CCC[C@@H]4CO)[C@H](OC)C3)[C@H](C)[C@@H](O)CC1=O)[C@H](C)C[C@@H]2OC (single isomer, unassigned) [Example 76]	< 1000
CC[C@@H]1/C=C(\C)C[C@H](C)C[C@H](OC)[C@H]2O[C@@](O)(C(=O)C(=O)N3CCCC[C@H]3C(=O)O[C@H](/C(C)=C/[C@@H]3CCC(N4CCC[C@H]4CO)[C@H](OC)C3)[C@H](C)[C@@H](O)CC1=O)[C@H](C)C[C@@H]2OC (single isomer, unassigned) [Example 109]	< 1000
CC[C@@H]1/C=C(\C)C[C@H](C)C[C@H](OC)[C@H]2O[C@@](O)(C(=O)C(=O)N3CCCC[C@H]3C(=O)O[C@H](/C(C)=C/[C@@H]3CCC(N4CCN(C)CC4)[C@H](OC)C3)[C@H](C)[C@@H](O)CC1=O)[C@H](C)C[C@@H]2OC (stereo partly shown) [Example 5]	< 1000
CC[C@@H]1/C=C(\C)C[C@H](C)C[C@H](OC)[C@H]2O[C@@](O)(C(=O)C(=O)N3CCCC[C@H]3C(=O)O[C@H](/C(C)=C/[C@@H]3CCC(N4CCN(Cc5ccccc5)CC4)[C@H](OC)C3)[C@H](C)[C@@H](O)CC1=O)[C@H](C)C[C@@H]2OC (stereo partly shown) [Example 7]	< 1000
CC[C@@H]1/C=C(\C)C[C@H](C)C[C@H](OC)[C@H]2O[C@@](O)(C(=O)C(=O)N3CCCC[C@H]3C(=O)O[C@H](/C(C)=C/[C@@H]3CCC(N4CCN(c5ccccc5)CC4)[C@H](OC)C3)[C@H](C)[C@@H](O)CC1=O)[C@H](C)C[C@@H]2OC (stereo partly shown) [Example 9]	< 1000
CC[C@@H]1/C=C(\C)C[C@H](C)C[C@H](OC)[C@H]2O[C@@](O)(C(=O)C(=O)N3CCCC[C@H]3C(=O)O[C@H](/C(C)=C/[C@@H]3CCC(N4CCN(C(=O)OC(C)(C)C)CC4)[C@H](OC)C3)[C@H](C)[C@@H](O)CC1=O)[C@H](C)C[C@@H]2OC (stereo partly shown) [Example 11]	< 1000
CCC1C=C(C)CC(C)CC(OC)C2OC(O)(C(=O)C(=O)N3CCCCC3C(=O)OC(C(C)=CC3CCC(N4CCN(Cc5ccc([N+](=O)[O-])cc5)CC4)C(OC)C3)C(C)C(O)CC1=O)C(C)CC2OC (stereo not shown) [Example 12]	< 1000
CCC1C=C(C)CC(C)CC(OC)C2OC(O)(C(=O)C(=O)N3CCCCC3C(=O)OC(C(C)=CC3CCC(N4CCN(Cc5ccc6ccccc6c5)CC4)C(OC)C3)C(C)C(O)CC1=O)C(C)CC2OC (stereo not shown) [Example 13]	< 1000
CC[C@@H]1/C=C(\C)C[C@H](C)C[C@H](OC)[C@H]2O[C@@](O)(C(=O)C(=O)N3CCCC[C@H]3C(=O)O[C@H](/C(C)=C/[C@@H]3CCC(N4CCCCC4)[C@H](OC)C3)[C@H](C)[C@@H](O)CC1=O)[C@H](C)C[C@@H]2OC (stereo partly shown) [Example 14]	< 1000
CC[C@@H]1/C=C(\C)C[C@H](C)C[C@H](OC)[C@H]2O[C@@](O)(C(=O)C(=O)N3CCCC[C@H]3C(=O)O[C@H](/C(C)=C/[C@@H]3CCC(N4CCN(C=O)CC4)[C@H](OC)C3)[C@H](C)[C@@H](O)CC1=O)[C@H](C)C[C@@H]2OC (stereo partly shown) [Example 15]	< 1000
CC[C@@H]1/C=C(\C)C[C@H](C)C[C@H](OC)[C@H]2O[C@@](O)(C(=O)C(=O)N3CCCC[C@H]3C(=O)O[C@H](/C(C)=C/[C@@H]3CCC(N4CCC5(CC4)OCCO5)[C@H](OC)C3)[C@H](C)[C@@H](O)CC1=O)[C@H](C)C[C@@H]2OC (stereo partly shown) [Example 16]	< 1000
CC[C@@H]1/C=C(\C)C[C@H](C)C[C@H](OC)[C@H]2O[C@@](O)(C(=O)C(=O)N3CCCC[C@H]3C(=O)O[C@H](/C(C)=C/[C@@H]3CCC(N4CCN(CCO)CC4)[C@H](OC)C3)[C@H](C)[C@@H](O)CC1=O)[C@H](C)C[C@@H]2OC (stereo partly shown) [Example 17]	< 1000
CC[C@@H]1/C=C(\C)C[C@H](C)C[C@H](OC)[C@H]2O[C@@](O)(C(=O)C(=O)N3CCCC[C@H]3C(=O)O[C@H](/C(C)=C/[C@@H]3CCC(N4CCOCC4)[C@H](OC)C3)[C@H](C)[C@@H](O)CC1=O)[C@H](C)C[C@@H]2OC (stereo partly shown) [Example 18]	< 1000
CC[C@@H]1/C=C(\C)C[C@H](C)C[C@H](OC)[C@H]2O[C@@](O)(C(=O)C(=O)N3CCCC[C@H]3C(=O)O[C@H](/C(C)=C/[C@@H]3CCC(N4CCN(CCOCCO)CC4)[C@H](OC)C3)[C@H](C)[C@@H](O)CC1=O)[C@H](C)C[C@@H]2OC (stereo partly shown) [Example 19]	< 1000
CC[C@@H]1/C=C(\C)C[C@H](C)C[C@H](OC)[C@H]2O[C@@](O)(C(=O)C(=O)N3CCCC[C@H]3C(=O)O[C@H](/C(C)=C/[C@@H]3CCC(N4CCN(c5ccccn5)CC4)[C@H](OC)C3)[C@H](C)[C@@H](O)CC1=O)[C@H](C)C[C@@H]2OC (stereo partly shown) [Example 20]	< 1000
CC[C@@H]1/C=C(\C)C[C@H](C)C[C@H](OC)[C@H]2O[C@@](O)(C(=O)C(=O)N3CCCC[C@H]3C(=O)O[C@H](/C(C)=C/[C@@H]3CCC(N4CCN(c5ncccn5)CC4)[C@H](OC)C3)[C@H](C)[C@@H](O)CC1=O)[C@H](C)C[C@@H]2OC (stereo partly shown) [Example 21]	< 1000

Compound	IC50 [nM]
CC[C@@H]1/C=C(\C)C[C@H](C)C[C@H](OC)[C@H]2O[C@@](O)(C(=O)C(=O)N3CCCC[C@H]3C(=O)O[C@H](/C(C)=C/[C@@H]3CCC(N4CCNCC4)[C@H](OC)C3)[C@H](C)[C@@H](O)CC1=O)[C@H](C)C[C@@H]2OC (stereo partly shown) [Example 22]	< 1000
CC[C@@H]1/C=C(\C)C[C@H](C)C[C@H](OC)[C@H]2O[C@@](O)(C(=O)C(=O)N3CCCC[C@H]3C(=O)O[C@H](/C(C)=C/[C@@H]3CCC(N4CCN(CC(=O)N5CCCC5)CC4)[C@H](OC)C3)[C@H](C)[C@@H](O)CC1=O)[C@H](C)C[C@@H]2OC (stereo partly shown) [Example 27]	< 1000
CC[C@@H]1/C=C(\C)C[C@H](C)C[C@H](OC)[C@H]2O[C@@](O)(C(=O)C(=O)N3CCCC[C@H]3C(=O)O[C@H](/C(C)=C/[C@@H]3CCC(N4CCN(CC(=O)N5CCOCC5)CC4)[C@H](OC)C3)[C@H](C)[C@@H](O)CC1=O)[C@H](C)C[C@@H]2OC (stereo partly shown) [Example 28]	< 1000
CC[C@@H]1/C=C(\C)C[C@H](C)C[C@H](OC)[C@H]2O[C@@](O)(C(=O)C(=O)N3CCCC[C@H]3C(=O)O[C@H](/C(C)=C/[C@@H]3CCC(N4CCN(C5CCCC5)CC4)[C@H](OC)C3)[C@H](C)[C@@H](O)CC1=O)[C@H](C)C[C@@H]2OC (stereo partly shown) [Example 31]	< 1000
CCC1C=C(C)CC(C)CC(OC)C2OC(O)(C(=O)C(=O)N3CCCCC3C(=O)OC(C(C)=CC3CCC(N4CCN(Cc5ccc6c(c5)OCO6)CC4)C(OC)C3)C(C)C(O)CC1=O)C(C)CC2OC (stereo not shown) [Example 38]	< 1000
CC[C@@H]1/C=C(\C)C[C@H](C)C[C@H](OC)[C@H]2O[C@@](O)(C(=O)C(=O)N3CCCC[C@H]3C(=O)O[C@H](/C(C)=C/[C@@H]3CCC(N4CCN(c5ccc(C(C)=O)cc5)CC4)[C@H](OC)C3)[C@H](C)[C@@H](O)CC1=O)[C@H](C)C[C@@H]2OC (stereo partly shown) [Example 39]	< 1000
CC[C@@H]1/C=C(\C)C[C@H](C)C[C@H](OC)[C@H]2O[C@@](O)(C(=O)C(=O)N3CCCC[C@H]3C(=O)O[C@H](/C(C)=C/[C@@H]3CCC(N4CCC(N5CCCC5)CC4)[C@H](OC)C3)[C@H](C)[C@@H](O)CC1=O)[C@H](C)C[C@@H]2OC (stereo partly shown) [Example 44]	< 1000
CCOC(=O)N1CCN(C2CC[C@@H](/C=C(\C)[C@H]3OC(=O)[C@@H]4CCCCN4C(=O)C(=O)[C@]4(O)O[C@H]([C@@H](OC)C[C@@H](C)C/C(C)=C/[C@@H](CC)C(=O)C[C@H](O)[C@H]3C)[C@@H](OC)C[C@H]4C)C[C@H]2OC)CC1 (stereo partly shown) [Example 58]	< 1000
CC[C@@H]1/C=C(\C)C[C@H](C)C[C@H](OC)[C@H]2O[C@@](O)(C(=O)C(=O)N3CCCC[C@H]3C(=O)O[C@H](/C(C)=C/[C@@H]3CCC(N4CCN(C(C)=O)CC4)[C@H](OC)C3)[C@H](C)[C@@H](O)CC1=O)[C@H](C)C[C@@H]2OC (stereo partly shown) [Example 61]	< 1000
CC[C@@H]1/C=C(\C)C[C@H](C)C[C@H](OC)[C@H]2O[C@@](O)(C(=O)C(=O)N3CCCC[C@H]3C(=O)O[C@H](/C(C)=C/[C@@H]3CCC(N4CCN(CC(=O)NC(C)C)CC4)[C@H](OC)C3)[C@H](C)[C@@H](O)CC1=O)[C@H](C)C[C@@H]2OC (stereo partly shown) [Example 62]	< 1000
CC[C@@H]1/C=C(\C)C[C@H](C)C[C@H](OC)[C@H]2O[C@@](O)(C(=O)C(=O)N3CCCC[C@H]3C(=O)O[C@H](/C(C)=C/[C@@H]3CCC(N4CCC(O)CC4)[C@H](OC)C3)[C@H](C)[C@@H](O)CC1=O)[C@H](C)C[C@@H]2OC (stereo partly shown) [Example 67]	< 1000
CC[C@@H]1/C=C(\C)C[C@H](C)C[C@H](OC)[C@H]2O[C@@](O)(C(=O)C(=O)N3CCCC[C@H]3C(=O)O[C@H](/C(C)=C/[C@@H]3CCC(N4CCCCC4CO)[C@H](OC)C3)[C@H](C)[C@@H](O)CC1=O)[C@H](C)C[C@@H]2OC (stereo partly shown) [Example 105]	< 1000
CC[C@@H]1/C=C(\C)C[C@H](C)C[C@H](OC)[C@H]2O[C@@](O)(C(=O)C(=O)N3CCCC[C@H]3C(=O)O[C@H](/C(C)=C/[C@@H]3CCC(N4CCCC(CO)C4)[C@H](OC)C3)[C@H](C)[C@@H](O)CC1=O)[C@H](C)C[C@@H]2OC (stereo partly shown) [Example 106]	< 1000
CC[C@@H]1/C=C(\C)C[C@H](C)C[C@H](OC)[C@H]2O[C@@](O)(C(=O)C(=O)N3CCCC[C@H]3C(=O)O[C@H](/C(C)=C/[C@@H]3CCC(N4CCCCC4CCO)[C@H](OC)C3)[C@H](C)[C@@H](O)CC1=O)[C@H](C)C[C@@H]2OC (stereo partly shown) [Example 107]	< 1000
CC[C@@H]1/C=C(\C)C[C@H](C)C[C@H](OC)[C@H]2O[C@@](O)(C(=O)C(=O)N3CCCC[C@H]3C(=O)O[C@H](/C(C)=C/[C@@H]3CCC(N4CCCC(O)C4)[C@H](OC)C3)[C@H](C)[C@@H](O)CC1=O)[C@H](C)C[C@@H]2OC (stereo partly shown) [Example 108]	< 1000
